Experimental data: US8088426B2, “Kokumi flavour compounds and use” (priority 2005, dated 2012)
Entries after “also recorded” stand apart in the source; their conditions may differ.

How the values were obtained:
Format in all cases: in vivo
trained sensory panel [1] = test: Sensory triangle test, kokumi taste in chicken broth; conditions: for Sensory descriptors: pH 6.5, versus broth without additives
Description: Unless otherwise indicated, all sensory tests are triangle tests and are performed according to the guidelines in “Amtliche Sammlung von Untersuchungsverfahren nach § 35 LMBG (Lebensmittel-und Bedarfsgegenständegesetz)”; L 00.90 7, Untersuchung von Lebensmitteln, Sensorische Prüfverfahren, Dreiecksprüfung (Übernahme der gleichnahmigen Deutschen Norm DIN ISO 4120, Ausgabe Januar 1995), as follows:
The sensory panel is trained to evaluate the taste of aqueous solutions (4 ml each) of the following standard taste compounds by using a triangle test as described in the literature (Wieser and Belitz, Z. Lebensm. Unters. Forsch., 1975, 159, 65-72): sucrose (40 mmol/L) for sweet taste; citric acid (5 mmol/L) for sour taste; NaCl (12 mmol/L) for salt taste; caffeine (2 mmol/L) for bitter taste; and monosodium glutamate (MSG) (6 mmol/L) for umami taste. For kokumi taste, a solution of GSH (glutathione, 10 mmol/L) in diluted chicken broth concentrate (Goumet Bouillon Huhn, Maggi, Singen, Germany; 3 g/100 g bottled water (Evian®)) is prepared and compared to the taste of chicken broth with no glutathione added.
All sensory analyses are performed in a sensory panel room at 22-25° C. over three different sessions by a trained panel of 8 to 10 individuals.
For recording the taste profiles, samples are prepared as indicated in the examples below. Taste profiles of samples are determined in a triangle test in three different sessions. Panellists refrain from eating or drinking for at least 1 hour prior to the session. At the start of the session and before each trial, the subject rinsed with water and expectorated. The participants receive a set of two blanks and one taste sample. Liquid samples are swirled around in the mouth briefly and expectorated. Solid samples are chewed for 20 seconds and then expectorated. […] Each sample with additive is compared to two reference samples without additives. Kokumi intensity is rated according to a scale from 0 to 5 (with 5 most intensive). The additive is added to a consumable and the sample is homogenised. The samples are presented to the sensory panel directly after homogenisation. The sensory panel in all tests included 8 trained individuals.
Chicken Broth is prepared by dilution of 3 g chicken broth concentrate (Gourmet Bouillon Huhn; Maggi, Singen, Germany) with 100 ml water (Evian). Additives are added as specified in table below.
For each sample, kokumi intensity is rated and panelists are asked to describe sensory characteristics.

trained sensory panel [2] = test: Sensory triangle test, kokumi compounds in ketchup; conditions: 2500 ppm; for Panelists indicating more meaty, bouillon-like, intensified overall taste: panel of 8
Description: Unless otherwise indicated, all sensory tests are triangle tests and are performed according to the guidelines in “[…] von […]-und Bedarfsgegenständegesetz)”; L 00.90 7, Untersuchung von Lebensmitteln, Sensorische […] Deutschen Norm DIN ISO 4120, Ausgabe Januar 1995), as follows: All sensory analyses are performed in a sensory panel room at 22-25° C. over three different sessions by a trained panel of 8 to 10 individuals. For recording the taste profiles, samples are prepared as indicated in the examples below. Taste profiles of samples are determined in a triangle test in three different sessions. Panellists refrain from eating or drinking for at least 1 hour prior to the session. At the start of the session and before each trial, the subject rinsed with water and expectorated. The participants receive a set of two blanks and one taste sample. Liquid samples are swirled around in the mouth briefly and expectorated. Solid samples are chewed for 20 seconds and then expectorated. […] Each sample with additive is compared to two reference samples without additives. Kokumi intensity is rated according to a scale from 0 to 5 (with 5 most intensive). The additive is added to a consumable and the sample is homogenised. The samples are presented to the sensory panel directly after homogenisation. The sensory panel in all tests included 8 trained individuals. Compounds as indicated in the table below are added to ketchup (Kraft) in a concentration of 2500 ppm.

trained sensory panel [3] = test: Sensory triangle test, kokumi compounds in tomato juice; conditions: for Panelists preferring the sample: panel of 8; for Test results (taste description): versus reference without additives
Description: Unless otherwise indicated, all sensory tests are triangle tests and are performed according to the guidelines in “[…] von […]-und Bedarfsgegenständegesetz)”; L 00.90 7, Untersuchung von Lebensmitteln, Sensorische […] Deutschen Norm DIN ISO 4120, Ausgabe Januar 1995), as follows: All sensory analyses are performed in a sensory panel room at 22-25° C. over three different sessions by a trained panel of 8 to 10 individuals. For recording the taste profiles, samples are prepared as indicated in the examples below. Taste profiles of samples are determined in a triangle test in three different sessions. Panellists refrain from eating or drinking for at least 1 hour prior to the session. At the start of the session and before each trial, the subject rinsed with water and expectorated. The participants receive a set of two blanks and one taste sample. Liquid samples are swirled around in the mouth briefly and expectorated. Solid samples are chewed for 20 seconds and then expectorated. […] Each sample with additive is compared to two reference samples without additives. Kokumi intensity is rated according to a scale from 0 to 5 (with 5 most intensive). The additive is added to a consumable and the sample is homogenised. The samples are presented to the sensory panel directly after homogenisation. The sensory panel in all tests included 8 trained individuals. Compounds as indicated in the table below are added to tomato juice (Albi, Germany) in the concentrations indicated below.

[4] = additive 10 mmol/L, pH 6.5, scale 0 to 5 (5 most intensive), broth without additives rated 2

N[C@@H](CCC(=O)N[C@@H](CS)C(=O)NCC(=O)O)C(=O)O [GSH, reduced form, Gamma-L-glutamyl-L-cysteinyl-glycine]
Kokumi intensity (0-5) (trained sensory panel [1]; [4]): 3.5

N[C@@H](CCC(=O)O)C(=O)[O-].[Na+] [MSG, mono sodium glutamate]
Kokumi intensity (0-5) (trained sensory panel [1]; [4]): 2
Sensory descriptors (trained sensory panel [1]; additive 10 mmol/L): higher umami (taste of MSG) intensity; also recorded: no effect on mouthfulness and complexity of the taste profile; also recorded: Increased umami taste

[Cl-].[Na+] [NaCl]
Kokumi intensity (0-5) (trained sensory panel [1]; additive 30 mmol/L, pH 6.5, scale 0 to 5, broth without additives rated 2): 2
Sensory descriptors (trained sensory panel [1]; additive 30 mmol/L): more salty than the negative control; also recorded: no effect on mouthfulness and complexity of the taste profile; also recorded: increased salty taste

CCOC(=O)CC(SC[C@H](NC(=O)CC[C@H](N)C(=O)O)C(=O)O)C(=O)OCC (stereo partly drawn) [S-(α,β-dicarboxyethyl diethylester) γ-L-glutamyl-L-cysteine]
Panelists indicating more meaty, bouillon-like, intensified overall taste (trained sensory panel [2]): 7 out of 8
Panelists preferring the sample (trained sensory panel [3]; 1000 ppm): all panelists
Test results (taste description) (trained sensory panel [3]; 1000 ppm): even more pronounced kokumi sensation
Kokumi intensity (0-5) (trained sensory panel [1]; [4]): 4.5

CCOC(=O)CC(SC[C@H](NC(=O)CC[C@H](N)C(=O)O)C(=O)NCC(=O)O)C(=O)OCC (stereo partly drawn) [S-(α,β-dicarboxyethyl diethylester) γ-L-glutamyl-L-cysteinyl-glycine]
Observed effect compared to S-(α,β-dicarboxyethyl diethylester) γ-L-glutamyl-L-cysteine (trained sensory panel [2]): lower
Panelists indicating more meaty, bouillon-like, intensified overall taste (trained sensory panel [2]): 7 out of 8
Panelists preferring the sample (trained sensory panel [3]; 1000 ppm): 6 out of 8
Test results (taste description) (trained sensory panel [3]; 1000 ppm): more intensive and well-balanced kokumi taste
Test results (taste description) (trained sensory panel [3]; 5000 ppm): increased with ascending concentrations
Kokumi intensity (0-5) (trained sensory panel [1]; [4]): 3.5

COC(=O)CC(SC[C@H](NC(=O)CC[C@H](N)C(=O)O)C(=O)O)C(=O)OC (stereo partly drawn) [S-(α,β-dicarboxyethyl dimethylester) γ-L-glutamyl-L-cysteine]
Kokumi intensity (0-5) (trained sensory panel [1]; [4]): 4.5

COC(=O)CC(SC[C@H](NC(=O)CC[C@H](N)C(=O)O)C(=O)NCC(=O)O)C(=O)OC (stereo partly drawn) [S-(α,β-dicarboxyethyl dimethylester) γ-L-glutamyl-L-cysteinyl-glycine]
Kokumi intensity (0-5) (trained sensory panel [1]; [4]): 3.5

CCCOC(=O)CC(SC[C@H](NC(=O)CC[C@H](N)C(=O)O)C(=O)O)C(=O)OCCC (stereo partly drawn) [S-(α,β-dicarboxyethyl dipropylester) γ-L-glutamyl-L-cysteine]
Sensory descriptors (trained sensory panel [1]; additive 10 mmol/L): bitter

CCCOC(=O)CC(SC[C@H](NC(=O)CC[C@H](N)C(=O)O)C(=O)NCC(=O)O)C(=O)OCCC (stereo partly drawn) [S-(α,β-dicarboxyethyl dipropylester) γ-L-glutamyl-L-cysteinyl-glycine]
Sensory descriptors (trained sensory panel [1]; additive 10 mmol/L): bitter
